The molecules below were run against T1, ACAT (Mus musculus, UniProt Q61263) (assay: Inhibition of cholesterol esterification in the murine macrophage-like cell line J774.A1). Settings: J774.A1 cells, ac-LDL loaded, 14C-oleic acid pulse.
T1 construct: endogenous in cells; host or cells: J774.A1 (murine macrophage-like)
T1 sequence (Q61263 1-540): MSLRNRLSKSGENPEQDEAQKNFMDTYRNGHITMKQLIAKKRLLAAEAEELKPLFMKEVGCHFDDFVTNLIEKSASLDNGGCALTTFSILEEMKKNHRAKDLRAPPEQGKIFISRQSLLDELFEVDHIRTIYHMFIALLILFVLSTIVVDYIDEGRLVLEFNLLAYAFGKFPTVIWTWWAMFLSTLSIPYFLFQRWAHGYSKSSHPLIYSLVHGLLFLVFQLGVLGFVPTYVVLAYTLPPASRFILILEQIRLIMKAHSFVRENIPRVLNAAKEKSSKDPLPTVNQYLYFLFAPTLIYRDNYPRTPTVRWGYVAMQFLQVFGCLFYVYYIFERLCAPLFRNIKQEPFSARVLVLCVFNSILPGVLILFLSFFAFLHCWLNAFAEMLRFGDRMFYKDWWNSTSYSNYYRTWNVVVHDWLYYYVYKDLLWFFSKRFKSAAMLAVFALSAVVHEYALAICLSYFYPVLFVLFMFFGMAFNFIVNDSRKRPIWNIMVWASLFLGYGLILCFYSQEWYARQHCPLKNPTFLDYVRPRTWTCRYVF
Type: cell-based
Procedure: The esterification of cholesterol was determined in the murine macrophage-like cell line J774.A1. Cells were seeded in 35 mm wells at a density of 300,000 cells per well in 2 mls of Dulbecco's Eagle Medium (DMEM) supplemented with 10% fetal bovine serum (FBS). Cells were incubated at 37° C. in an atmosphere of 5% CO2 and 93% humidity. After […] the media was changed to 0.68 mls 10% FBS-DMEM containing 34 μg of acetylated human low density lipoprotein (ac-LDL) to increase the intracellular concentration of cholesterol and promote esterification. At 41 hours, various inhibitors were added to the cells in DMSO (10 μl/ml maximum). At 43 hours, the cells were pulsed with 0.1 mM ^14 C-oleic acid (10,000 dpm/nmol) complexed with BSA (bovine serum albumin) to follow cholesterol ester formation. The experiment was terminated at 45 hours by washing the monolayers 3 times with 3 ml of Tris-buffered saline at 4° C. The lipids were extracted by incubating the monolayers with 1.5 ml of hexane: isopropanol (3:2, v/v) for 30 min. under gentle agitation. During this period, 10,000 dpm ^3 H-cholesterol oleate and 10 μg of unlabeled cholesteryl oleate, oleic acid, triolein and cholesterol were added as an […] standard and carriers. The organic solvent was removed and the cells were washed with an additional 1.0 ml of hexane: isopropanol which was combined with the original extract. The cells were allowed to dry overnight, digested with 2.0 ml of 0.2N sodium hydroxide for 1 hour and an aliquot of the solubilized protein used for protein determination using the Lowry method. […] Extracts were collected in scintillation vials to determine the amount of radioactivity. The conversion of oleic acid to cholesteryl ester in the control averaged 0.54 mmol/hour/mg protein and was increased upon the addition of ac-LDL to about 10.689±0.69 mmol/hour/mg protein.

| IC50 [nM] | Compound |
| --- | --- |
| 580 | CCN(CC)CCN(CCCCCSc1nc(-c2ccccc2)c(-c2ccccc2)[nH]1)C(=O)NC(C)C [Example 1, N-[2-(diethylamino)ethyl]-N-[5-(4,5-diphenyl-1H-imidazol-2-ylthio)pentyl]-N'-(1-methylethyl)-urea] |
| 2180 | CCN(CC)CCN(CCCCCSc1nc(-c2ccccc2)c(-c2ccccc2)[nH]1)C(=O)Nc1ccc(F)cc1F [Example 2] |
| 630 | CCCCN(C)CCN(CCOCCSc1nc(-c2ccc(OC)cc2)c(-c2ccc(OC)cc2)[nH]1)C(=O)Nc1ccc(F)cc1F [Example 32, N-[2-(2-(4,5-bis(4-methoxyphenyl)-1H-imidazol-2-ylthio)ethoxy)ethyl]-N-[2-(N-butyl-N-methylamino)ethyl]-N'-(2,4-difluorophenyl) urea] |
| 1470 | CCCCCCCN(CCN(C)CCSc1nc(-c2ccccc2)c(-c2ccccc2)[nH]1)C(=O)Nc1ccc(F)cc1F [Example 101, N'-(2,4-difluorophenyl)-N-[2-[2-(4,5-diphenyl-1H-imidazol-2-ylthio)ethyl]-N-[methylamino]ethyl]-N-heptyl-urea] |
| 2400 | CCCCCCCN(CCN(C)CCSc1nc(-c2ccccc2)c(-c2ccccc2)[nH]1)C(=O)NC(C)C [Example 102] |
| 880 | O=C(Nc1ccc(F)cc1F)N(CCCCCSc1nc(-c2ccccc2)c(-c2ccccc2)[nH]1)CCN1CCOCC1 [Example 161, N'-(2,4-difluorophenyl)-N-[5-(4,5-diphenyl-1H-imidazol-2-ylthio)pentyl]-N-[2-(4-morpholinyl)ethyl]-urea] |
| 1340 | COc1ccc(-c2nc(SCCCCCN(CCN3CCOCC3)C(=O)Nc3ccc(F)cc3F)[nH]c2-c2ccc(OC)cc2)cc1 [Example 162, N-[5-[4,5-bis(4-methoxyphenyl)-1H-imidazol-2-ylthio]pentyl]-N'-(2,4-difluorophenyl)-N-[2-(1-morpholinyl)ethyl]-urea] |
| 2740 | CN(CCSc1nc(-c2ccccc2)c(-c2ccccc2)[nH]1)CCN(CCN1CCOCC1)C(=O)Nc1ccc(F)cc1F [Example 181] |
| 6280 | CC(C)NC(=O)N(CCN(C)CCSc1nc(-c2ccccc2)c(-c2ccccc2)[nH]1)CCN1CCOCC1 [Example 183] |
| 6740 | O=C(Nc1ccc(F)cc1F)N(CCCCCSc1nc(-c2ccccc2)c(-c2ccccc2)[nH]1)CCOCCO [Example 281] |
| 6840 | CC(C)NC(=O)N(CCCCCSc1nc(-c2ccccc2)c(-c2ccccc2)[nH]1)CCOCCO [Example 282, N-[5-(4,5-diphenyl-1H-imidazol-2-ylthio)-pentyl]-N-[2-(2-hydroxyethoxy)-ethyl]-N'-(1-methylethyl)-urea] |
| 840 | COc1ccc(-c2nc(SCCCCCN(CCOCCO)C(=O)Nc3ccc(F)cc3F)[nH]c2-c2ccc(OC)cc2)cc1 [Example 283, N-[5-[4,5-bis(4-methoxyphenyl)-1H-imidazol-2-ylthio]pentyl]-N '-(2,4-difluorophenyl)-N-[2-(2-hydroxyethoxy)ethyl]-urea] |
| 2420 | COc1ccc(-c2nc(SCCCCCN(CCOCCO)C(=O)NC(C)C)[nH]c2-c2ccc(OC)cc2)cc1 [Example 284] |
| 250 | COCCOCCN(CCCCCSc1nc(-c2ccc(OC)cc2)c(-c2ccc(OC)cc2)[nH]1)C(=O)Nc1ccc(F)cc1F [Example 303, N-[5-[4,5-bis(4-methoxyphenyl)-1H-imidazol-2-ylthio]pentyl]-N '-(2,4-difluorophenyl)-N-[2-(2-methoxyethoxy)ethyl]-urea] |
| 360 | COCCOCCN(CCCCCSc1nc(-c2ccc(OC)cc2)c(-c2ccc(OC)cc2)[nH]1)C(=O)NC(C)C [Example 304, N-[5-[4,5-bis(4-methoxyphenyl)-1H-imidazol-2-ylthio]-pentyl]-N-[2-(2-methoxyethoxy)-ethyl]-N'-(1-methylethyl)-urea] |
| 4010 | CCOCCOCCN(CCCCCSc1nc(-c2ccccc2)c(-c2ccccc2)[nH]1)C(=O)Nc1ccc(F)cc1F [Example 321] |
| 3020 | CCOCCOCCN(CCCCCSc1nc(-c2ccccc2)c(-c2ccccc2)[nH]1)C(=O)NC(C)C [Example 322] |
| 41 | CCOCCOCCN(CCCCCSc1nc(-c2ccc(SC)cc2)c(-c2ccc(SC)cc2)[nH]1)C(=O)NC(C)C [Example 325] |
| 3980 | CCCCCCCN(CCOCCSc1nc(-c2ccccc2)c(-c2ccccc2)[nH]1)C(=O)Nc1ccc(F)cc1F [Example 361] |
| 990 | CCCCCCCN(CCOCCSc1nc(-c2ccccc2)c(-c2ccccc2)[nH]1)C(=O)NC(C)C [Example 362] |
| 500 | CCCCCCCN(CCOCCSc1nc(-c2ccc(OC)cc2)c(-c2ccc(OC)cc2)[nH]1)C(=O)Nc1ccc(F)cc1F [Example 364] |
| 3680 | CCCN(CCOC(=O)CSc1nc(-c2ccccc2)c(-c2ccccc2)[nH]1)C(=O)Nc1ccc(F)cc1F [Example 421] |

| Compound | IC50 [nM] |
| --- | --- |
| CCCCOCCN(CCCCCSc1nc(-c2ccccc2)c(-c2ccccc2)[nH]1)C(=O)Nc1ccc(F)cc1F [Example 261, N-(2-butoxyethyl)-N'-(2,4-difluorophenyl)-N-[5-(4,5-diphenyl-1H-imidazol-2-ylthio)pentyl]-urea] | 1750 |
| CCCCOCCN(CCCCCSc1nc(-c2ccccc2)c(-c2ccccc2)[nH]1)C(=O)NC(C)C [Example 262, N-(2-butoxyethyl)-N-[5-(4,5-diphenyl-1H-imidazol-2-ylthio)pentyl]-N'-(1-methylethyl)-urea] | 840 |

Each molecule was assayed against T2, acyl-CoA: cholesterol acyltransferase (ACAT) (Rattus norvegicus, UniProt Q7TQM4) (assay: Inhibition of Acyl-CoA: Cholesterol Acyltransferase (ACAT) in hepatic microsomes (in vitro hepatic ACAT activity)). Settings: 14C-oleoyl-CoA, 15 min preincubation at 37° C., pH 7.4, read-out: Inhibition of Cholesterol Esterification (IC50).
T2 construct: Microsomes were obtained by differential centrifugation; from tissue; host or cells: liver microsomes of male Sprague Dawley rats
T2 sequence (Q7TQM4 1-524): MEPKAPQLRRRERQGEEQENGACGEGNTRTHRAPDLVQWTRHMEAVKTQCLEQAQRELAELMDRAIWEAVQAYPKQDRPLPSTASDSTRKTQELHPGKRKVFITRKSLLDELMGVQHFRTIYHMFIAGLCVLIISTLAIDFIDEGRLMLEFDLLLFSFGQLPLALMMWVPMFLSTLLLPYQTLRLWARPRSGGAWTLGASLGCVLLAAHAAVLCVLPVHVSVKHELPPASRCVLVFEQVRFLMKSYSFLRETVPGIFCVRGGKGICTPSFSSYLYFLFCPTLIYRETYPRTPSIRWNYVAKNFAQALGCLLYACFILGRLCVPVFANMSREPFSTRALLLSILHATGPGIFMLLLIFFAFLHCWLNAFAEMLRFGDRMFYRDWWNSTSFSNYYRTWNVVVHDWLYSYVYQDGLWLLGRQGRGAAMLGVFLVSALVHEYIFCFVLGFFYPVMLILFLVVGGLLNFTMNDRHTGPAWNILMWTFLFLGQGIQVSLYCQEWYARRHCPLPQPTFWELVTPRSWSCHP
Type: biochemical, rat (male Sprague Dawley)
Procedure: The ability of the compounds to inhibit ACAT, the enzyme responsible for the intracellular synthesis of cholesteryl esters, was tested as follows. Male Sprague Dawley rats weighing 150-300 g, were fed rat chow ad libitum. The animals were fasted for twenty-four hours prior to being sacrificed by decapitation. The livers were perfused in situ with 50 ml of cold 0.25M sucrose, excised, and homogenized in three volumes of 0.1M phosphate buffer, pH 7.4, that contained 0.5 mM EDTA (ethylenediaminetetraacetic acid), 1.0 mM glutathione, 0.25M sucrose and […]. Microsomes were obtained by differential centrifugation; the supernatant from an initial spin at 15,000×g for 15 minutes was centrifuged at 105,000×g for 1 hour to pellet the microsomes. The microsomes were suspended in homogenization buffer, reisolated by centrifugation, and stored at -70° C. Microsomes were used within one month of preparation.
The control assay in a final volume of 200 μl consisted of 200 μg of microsomal protein, 75μ<^14 C-oleoyl-CoA (10,000 dpm/nmol) in 0.1M phosphate, pH 7.4, that contained 1 mM glutathione. Compounds were added in 5 μl of DMSO (dimethyl sulfoxide) and additional controls were run with DMSO only. All components, except the oleoyl-CoA, were preincubated for 15 min. at 37° C. prior to the initiation of the reaction by the addition of oleoyl-CoA. The assay was terminated after 10 min. by the addition of 4 ml of chloroform:methanol (2:1, v/v). 20,000 dpm of 3H-choledsteryl oleate and 10 μg of unlabeled cholesteryl oleate and oleic acid were added as an internal standard and carriers, respectively. After allowing 10 min. for lipid extraction, 0.8 ml of deionized water was added to separte the solution into two phases. The lower chloroform phase was collected, dried under nitrogen and resuspended in 2 ml of hexane:diethyl ether (97:3 v/v). The lipids were then loaded onto BAKERSBOND spe* silica gel columns. Extracts were collected in scintillation vials and counted for radioactivity. The specific activity of ACAT in the control incubation averaged 260 pmol/min/mg microsomal protein.

| IC50 [nM] | Compound |
| --- | --- |
| 1500 | CCCCN(C)CCN(CCOCCSc1nc(-c2ccc(OC)cc2)c(-c2ccc(OC)cc2)[nH]1)C(=O)Nc1ccc(F)cc1F [Example 32, N-[2-(2-(4,5-bis(4-methoxyphenyl)-1H-imidazol-2-ylthio)ethoxy)ethyl]-N-[2-(N-butyl-N-methylamino)ethyl]-N'-(2,4-difluorophenyl) urea] |
| 66 | O=C(Nc1ccc(F)cc1F)N(CCCCCSc1nc(-c2ccccc2)c(-c2ccccc2)[nH]1)CCN1CCOCC1 [Example 161, N'-(2,4-difluorophenyl)-N-[5-(4,5-diphenyl-1H-imidazol-2-ylthio)pentyl]-N-[2-(4-morpholinyl)ethyl]-urea] |
| 480 | COc1ccc(-c2nc(SCCCCCN(CCOCCO)C(=O)NC(C)C)[nH]c2-c2ccc(OC)cc2)cc1 [Example 284] |
| 4100 | CCCN(CCOC(=O)CSc1nc(-c2ccccc2)c(-c2ccccc2)[nH]1)C(=O)Nc1ccc(F)cc1F [Example 421] |
